Test results taken from PubChem BioAssay AID2060506 (Molecular Pharmacology Branch, DTP, NCI, 2025).
pIC50: −log10 of the molar value.

Test system: 598228-144-R-J1-PDC complex spheroid viability
Assay: Anticancer human tumor 598228-144-R-J1-PDC patient-derived serous endometrial adenocarcinoma cell line growth inhibition [GQUAD]
Settings: for pIC50: curve of first compound; for viability, T/C: stronger effect = lower value; active = viability on the fitted dose curve at most 10% of control; inactive = the rest
Outline: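 Tumor cells were grown as complex spheroids with HUVEC endothelial cells and mesenchymal stem cells as stroma. G-quadruplex stabilizers were combined with targeted agents over half-log dilutions from near the clinical Cmax, or from 10 microM.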

[1] = second compound 0.0316 µM, first compound 0.0316 µM
[2] = second compound 0.0316 µM, first compound 0.1 µM
[3] = second compound 0.0316 µM, first compound 0.316 µM
[4] = second compound 0.0316 µM, first compound 1 µM
[5] = second compound 0.0316 µM, first compound 3.16 µM
[6] = second compound 0.0316 µM, first compound 10 µM
[7] = second compound 0.1 µM, first compound 0.0316 µM
[8] = second compound 0.1 µM, first compound 0.1 µM
[9] = second compound 0.1 µM, first compound 0.316 µM
[10] = second compound 0.1 µM, first compound 1 µM
[11] = second compound 0.1 µM, first compound 3.16 µM
[12] = second compound 0.1 µM, first compound 10 µM
[13] = second compound 0.316 µM, first compound 0.0316 µM
[14] = second compound 0.316 µM, first compound 0.1 µM
[15] = second compound 0.316 µM, first compound 0.316 µM
[16] = second compound 0.316 µM, first compound 1 µM
[17] = second compound 0.316 µM, first compound 3.16 µM
[18] = second compound 0.316 µM, first compound 10 µM
[19] = second compound 1 µM, first compound 0.0316 µM
[20] = second compound 1 µM, first compound 0.1 µM
[21] = second compound 1 µM, first compound 0.316 µM
[22] = second compound 1 µM, first compound 1 µM
[23] = second compound 1 µM, first compound 3.16 µM
[24] = second compound 1 µM, first compound 10 µM
[25] = second compound 3.16 µM, first compound 0.0316 µM
[26] = second compound 3.16 µM, first compound 0.1 µM
[27] = second compound 3.16 µM, first compound 0.316 µM
[28] = second compound 3.16 µM, first compound 1 µM
[29] = second compound 3.16 µM, first compound 3.16 µM
[30] = second compound 3.16 µM, first compound 10 µM
[31] = second compound 10 µM, first compound 0.0316 µM
[32] = second compound 10 µM, first compound 0.1 µM
[33] = second compound 10 µM, first compound 0.316 µM
[34] = second compound 10 µM, first compound 1 µM
[35] = second compound 10 µM, first compound 3.16 µM
[36] = second compound 10 µM, first compound 10 µM
[37] = second compound 0.0316 µM, first compound 0.000999 µM
[38] = second compound 0.0316 µM, first compound 0.00316 µM
[39] = second compound 0.0316 µM, first compound 0.00999 µM
[40] = second compound 0.0316 µM, first compound 0.0999 µM
[41] = second compound 0.1 µM, first compound 0.000999 µM
[42] = second compound 0.1 µM, first compound 0.00316 µM
[43] = second compound 0.1 µM, first compound 0.00999 µM
[44] = second compound 0.1 µM, first compound 0.0999 µM
[45] = second compound 0.316 µM, first compound 0.000999 µM
[46] = second compound 0.316 µM, first compound 0.00316 µM
[47] = second compound 0.316 µM, first compound 0.00999 µM
[48] = second compound 0.316 µM, first compound 0.0999 µM
[49] = second compound 1 µM, first compound 0.000999 µM
[50] = second compound 1 µM, first compound 0.00316 µM
[51] = second compound 1 µM, first compound 0.00999 µM
[52] = second compound 1 µM, first compound 0.0999 µM
[53] = second compound 3.16 µM, first compound 0.000999 µM
[54] = second compound 3.16 µM, first compound 0.00316 µM
[55] = second compound 3.16 µM, first compound 0.00999 µM
[56] = second compound 3.16 µM, first compound 0.0999 µM
[57] = second compound 10 µM, first compound 0.000999 µM
[58] = second compound 10 µM, first compound 0.00316 µM
[59] = second compound 10 µM, first compound 0.00999 µM
[60] = second compound 10 µM, first compound 0.0999 µM
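Also: spheroids exposed to the agents for one week before reading.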
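For viability, T/C in this document: percent of vehicle DMSO control viability so 100% = untreated growth.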

COc1cccc2c1C(=O)c1c(O)c3c(c(O)c1C2=O)CC(O)(C(=O)CO)CC3OC1CC(N)C(O)C(C)O1 (stereo not drawn) + Cc1cnc(CNC(=O)c2c(=O)c3ccc(N4CCCN(C)CC4)nc3n3c2sc2ccccc23)cn1
active: viability, T/C [5] 0.82% | viability, T/C [6] 0.57% | viability, T/C [11] 1.19% | viability, T/C [12] 0.85% | viability, T/C [17] 0.37% | viability, T/C [18] 0.24% | viability, T/C [23] 0.6% | viability, T/C [24] 0.4% | viability, T/C [28] 0.52% | viability, T/C [29] 0.72% | viability, T/C [30] 0.28% | viability, T/C [34] 0.36% | viability, T/C [35] 0.41% | viability, T/C [36] 0.29%
> 7.50: pIC50 (second compound 10 µM)
6.11: pIC50 (second compound 0.316 µM)
inactive: viability, T/C [1] 90.4% | viability, T/C [2] 73.9% | viability, T/C [3] 79.3% | viability, T/C [4] 43.3% | viability, T/C [7] 80.8% | viability, T/C [8] 56.7% | viability, T/C [9] 77.8% | viability, T/C [10] 42.5% | viability, T/C [13] 69.1% | viability, T/C [14] 64.6% | viability, T/C [15] 80.3% | viability, T/C [16] 44.1% | viability, T/C [19] 63.1% | viability, T/C [20] 67.6% | viability, T/C [21] 82.9% | viability, T/C [22] 23.8% | viability, T/C [25] 44.3% | viability, T/C [26] 61.6% | viability, T/C [27] 52.7% | viability, T/C [31] 45.2% | viability, T/C [32] 43.8% | viability, T/C [33] 20.7%
6.13: pIC50 (second compound 0.1 µM)
6.28: pIC50 (second compound 1 µM)
6.47: pIC50 (second compound 3.16 µM)
6.09: pIC50 (second compound 0.0316 µM)

CC(=O)O[C@H]1C(=O)[C@@]2(C)[C@H]([C@H](OC(=O)c3ccccc3)[C@]3(O)C[C@H](OC(=O)[C@H](O)[C@@H](NC(=O)c4ccccc4)c4ccccc4)C(C)=C1C3(C)C)[C@]1(OC(C)=O)CO[C@@H]1C[C@@H]2O + Cc1[nH]c2ccc(F)cc2c1-c1nc2c3cccnc3c3ncccc3c2[nH]1
5.36: pIC50 (second compound 0.316 µM)
7.29: pIC50 (second compound 0.1 µM)
6.85: pIC50 (second compound 0.0316 µM)
inactive: viability, T/C [1] 56.2% | viability, T/C [2] 46.4% | viability, T/C [3] 48.4% | viability, T/C [4] 43.9% | viability, T/C [5] 50.9% | viability, T/C [6] 39.8% | viability, T/C [7] 55.1% | viability, T/C [8] 42.1% | viability, T/C [9] 52.2% | viability, T/C [10] 41.7% | viability, T/C [11] 40.6% | viability, T/C [12] 45.6% | viability, T/C [13] 63.6% | viability, T/C [14] 59.6% | viability, T/C [15] 52.5% | viability, T/C [16] 53.3% | viability, T/C [17] 50.1% | viability, T/C [18] 49.1% | viability, T/C [19] 49.8% | viability, T/C [20] 42.9% | viability, T/C [21] 50.1% | viability, T/C [22] 39% | viability, T/C [23] 37.5% | viability, T/C [24] 40.1% | viability, T/C [25] 45.2% | viability, T/C [26] 33.6% | viability, T/C [27] 37.5% | viability, T/C [28] 39.3% | viability, T/C [29] 34.9% | viability, T/C [30] 38.4% | viability, T/C [31] 40.3% | viability, T/C [32] 46.3% | viability, T/C [33] 41.7% | viability, T/C [34] 49.5% | viability, T/C [35] 48.3% | viability, T/C [36] 39.6%
> 7.50: pIC50 (second compound 1 µM) | pIC50 (second compound 3.16 µM) | pIC50 (second compound 10 µM)

Cn1ncnc1[C@H]1c2n[nH]c(=O)c3cc(F)cc(c23)N[C@@H]1c1ccc(F)cc1 + Cc1[nH]c2ccc(F)cc2c1-c1nc2c3cccnc3c3ncccc3c2[nH]1
inactive: viability, T/C [37] 125% | viability, T/C [38] 86.2% | viability, T/C [39] 106% | viability, T/C [1] 71.6% | viability, T/C [40] 80.8% | viability, T/C [3] 83.3% | viability, T/C [41] 103% | viability, T/C [42] 99% | viability, T/C [43] 78.8% | viability, T/C [7] 70.6% | viability, T/C [44] 93.8% | viability, T/C [9] 73.3% | viability, T/C [45] 78.6% | viability, T/C [46] 79.3% | viability, T/C [47] 76.6% | viability, T/C [13] 72% | viability, T/C [48] 69.7% | viability, T/C [15] 60.4% | viability, T/C [49] 63.9% | viability, T/C [50] 59.2% | viability, T/C [51] 66.2% | viability, T/C [19] 56.7% | viability, T/C [52] 50.9% | viability, T/C [21] 57.7% | viability, T/C [53] 33.1% | viability, T/C [54] 43.8% | viability, T/C [55] 51.1% | viability, T/C [25] 37.9% | viability, T/C [56] 39.6% | viability, T/C [27] 40.3% | viability, T/C [57] 64.3% | viability, T/C [58] 58.9% | viability, T/C [59] 64.6% | viability, T/C [31] 53% | viability, T/C [60] 55.6% | viability, T/C [33] 51.8%
> 9.00: pIC50 (second compound 3.16 µM)
< 6.50: pIC50 (second compound 0.0316 µM) | pIC50 (second compound 0.1 µM) | pIC50 (second compound 0.316 µM) | pIC50 (second compound 1 µM) | pIC50 (second compound 10 µM)

Cn1ncnc1[C@H]1c2n[nH]c(=O)c3cc(F)cc(c23)N[C@@H]1c1ccc(F)cc1 + Cc1cnc(CNC(=O)c2c(=O)c3ccc(N4CCCN(C)CC4)nc3n3c2sc2ccccc23)cn1
6.71: pIC50 (second compound 3.16 µM)
9.00: pIC50 (second compound 10 µM)
< 6.50: pIC50 (second compound 0.0316 µM) | pIC50 (second compound 0.1 µM) | pIC50 (second compound 0.316 µM) | pIC50 (second compound 1 µM)
inactive: viability, T/C [37] 81.7% | viability, T/C [38] 94% | viability, T/C [39] 87.3% | viability, T/C [1] 68.3% | viability, T/C [40] 74.4% | viability, T/C [3] 54.7% | viability, T/C [41] 79.1% | viability, T/C [42] 70.3% | viability, T/C [43] 61.2% | viability, T/C [7] 56.4% | viability, T/C [44] 60.3% | viability, T/C [9] 63.1% | viability, T/C [45] 66.3% | viability, T/C [46] 76.4% | viability, T/C [47] 56.8% | viability, T/C [13] 55.9% | viability, T/C [48] 59% | viability, T/C [15] 55.1% | viability, T/C [49] 55.5% | viability, T/C [50] 54.3% | viability, T/C [51] 56% | viability, T/C [19] 64.2% | viability, T/C [52] 59.3% | viability, T/C [21] 64.1% | viability, T/C [53] 57.5% | viability, T/C [54] 53.8% | viability, T/C [55] 52.9% | viability, T/C [25] 58.5% | viability, T/C [56] 57% | viability, T/C [27] 42% | viability, T/C [57] 40.5% | viability, T/C [58] 45.7% | viability, T/C [59] 59.1% | viability, T/C [31] 38.1% | viability, T/C [60] 51.7% | viability, T/C [33] 32.5%
